Measured values: ChEMBL document CHEMBL1121775, “Synthesis and antimalarial effects of N2-aryl-N4-[(dialkylamino)alkyl]- and N4-aryl-N2-[(dialkylamino)alkyl]-2,4-quinazolinediamines” (J Med Chem, 1981)
Where “and” joins values, the source holds several entries; their conditions need not be identical. Equal entries are not always repeated.

How the values were obtained:
Plasmodium berghei [1] = assay: Antimalarial activity against trophozoite-induced Plasmodium berghei in mice (Mus musculus); assay type: functional
[2] = The ratio of SD90 of the quinine hydrochloride, to the SD90 of the test substance for the Dose of 10.5 mg/kg; assay type: functional
Plasmodium berghei [3] = assay: Antimalarial effect against trophozoite-induced Plasmodium berghei in mice (Mus musculus) after 40 mg/kg subcutaneous dose; assay type: functional
Mus musculus [4] = assay: Antimalarial effect against trophozoite induced Plasmodium berghei in mice (Mus musculus) at dosage of 640 mg/kg after subcutaneous administration; No. of mice (Mus musculus) surviving after 60 days 3; assay type: functional
Mus musculus [5] = assay: Number of mice cured at a subcutaneous dose of 640 mg/kg.; assay type: functional
Mus musculus [6] = assay: Number of mice cured at a dose of 320 mg/kg sc; assay type: functional; details: route subcutaneous
Plasmodium berghei [7] = assay: (§1) Antimalarial effect against trophozoite-induced Plasmodium berghei in mice (Mus musculus) at 640 mg/kg subcutaneous dose; assay type: functional
Plasmodium berghei [8] = assay: Antimalarial effect against trophozoite-induced Plasmodium berghei in mice (Mus musculus) at 160 mg/kg subcutaneous dose; assay type: functional
Plasmodium berghei [9] = assay: Antimalarial effect against trophozoite-induced Plasmodium berghei in mice (Mus musculus) after 20 mg/kg subcutaneous dose; assay type: functional
Plasmodium berghei [10] = assay: Antimalarial effect against trophozoite-induced Plasmodium berghei in mice (Mus musculus) at 80 mg/kg subcutaneous dose; assay type: functional
Plasmodium berghei [11] = assay: Antimalarial effect against trophozoite-induced Plasmodium berghei in mice (Mus musculus) at 320 mg/kg subcutaneous dose; assay type: functional
Mus musculus [12] = assay: (§2) Number of mice cured at a dose of 40 mg/kg sc; assay type: functional; details: route subcutaneous
[13] = as §2; assay type: functional; details: route subcutaneous
Mus musculus [14] = assay: Antimalarial effect against trophozoite induced Plasmodium berghei in mice (Mus musculus) at dosage of 40 mg/kg after subcutaneous administration; assay type: functional
Plasmodium berghei [15] = assay: Antimalarial activity against trophozoite-induced Plasmodium berghei in mice (Mus musculus) at 160 mg/kg subcutaneous dose; assay type: functional; details: 160 mg/kg
[16] = Number of mice cured at a dose of 80 mg/kg sc; assay type: functional; details: route subcutaneous
Mus musculus [17] = assay: Number of mice cured at a subcutaneous dose of 160 mg/kg.; assay type: functional
Mus musculus [18] = assay: Number of mice cured at a dose of 640 mg/kg sc; assay type: functional; details: route subcutaneous
Mus musculus [19] = assay: Antimalarial effect against trophozoite-induced Plasmodium berghei in mice (Mus musculus) at dosage of 80 mg/kg after subcutaneous administration; assay type: functional; details: 80 mg/kg
[20] = The ratio of SD90 of the quinine htdrocloride, to the SD90 of the test substance for the Dose of 8.5 mg/kg; assay type: functional
Mus musculus [21] = assay: Antimalarial effect against trophozoite-induced Plasmodium berghei in mice (Mus musculus) at dosage of 160 mg/kg after subcutaneous administration;; assay type: functional
[22] = The ratio of SD90 of the quinine hydrochloride, to the SD90 of the test substance for the Dose of 6 mg/kg; assay type: functional
[23] = The ratio of SD90 of the quinine hydrochloride, to the SD90 of the test substance for the Dose of >69 mg/kg; assay type: functional
[24] = The ratio of SD90 of the quinine hydrochloride, to the SD90 of the test substance for the Dose of 91 mg/kg; assay type: functional
Mus musculus [25] = assay: Number of mice cured at a subcutaneous dose of 320 mg/kg.; assay type: functional
[26] = The ratio of SD90 of the quinine hydrochloride, to the SD90 of the test substance for the Dose of 25 mg/kg; assay type: functional
Plasmodium berghei [27] = assay: as §1; assay type: functional; remark: listed apart in the source
Mus musculus [28] = organism: Mus musculus; assay: Antimalarial effect against trophozoite-induced Plasmodium berghei in mice (Mus musculus); assay type: functional
[29] = The ratio of SD90 of the quinine hydrochloride, to the SD90 of the test substance for the Dose of 11 mg/kg; assay type: functional
Mus musculus [30] = assay: Number of toxic deaths at dose of 640 mg/kg; assay type: toxicity, organism-based; set-up: dose 640 mg/kg; details: in vivo
Mus musculus [31] = assay: Number of toxic deaths at doae of 320 mg/kg; assay type: toxicity, organism-based; set-up: dose 320 mg/kg; details: in vivo
Mus musculus [32] = assay: Number of mice cured at a dose of 160 mg/kg sc; assay type: functional; details: route subcutaneous
[33] = The ratio of SD90 of the quinine hydrochloride, to the SD90 of the test substance for the Dose of 17.5 mg/kg; assay type: functional
[34] = The ratio of SD90 of the quinine hydrochloride, to the SD90 of the test substance for the Dose of 9.3 mg/kg; assay type: functional

Structure (SMILES) | SD90 (Plasmodium berghei [1]) [mg/kg/day] | MST (Plasmodium berghei [3]) [days] | No. of cured (Mus musculus [5]) | No. of cured (Mus musculus [6]) | MST (Plasmodium berghei [7]) [days] | MST (Plasmodium berghei [8]; 160 mg/kg) | MST (Plasmodium berghei [9]; 20 mg/kg) | MST (Plasmodium berghei [10]) [days] | MST (Plasmodium berghei [11]) [days] | No. of survivals (Mus musculus [18]) | MST (Plasmodium berghei [3]; 40 mg/kg) | MST (Plasmodium berghei [9]) [days] | No. of survivals (Mus musculus [25]) | other results
CN1CCCC1CCNc1nc(Nc2ccc(Cl)c(Cl)c2)nc2ccccc12 (configuration not stated) | 10.5 | 4 | 4 | 2 | 29.8 | 13.2 days and 13.9 days | 3 days and 3.9 days | 8 | 20.8 |  |  |  |  | Ratio [2]: 7.1; MST (Mus musculus [4]): 28.9 days
CCN(CC)C1CCC(Nc2nc(Nc3cc(Cl)cc(Cl)c3)nc3ccccc23)CC1 (stereo in doubt; 35) | 8.5 |  |  |  |  |  | 5.5 days |  |  | 5 |  |  |  | No. of survivals (Mus musculus [12]): 2; No. of survivals [13]: 2; No. of survivals (Mus musculus [6]): 5; MST (Mus musculus [14]): 9.6 days and 8.9 days; MST (Plasmodium berghei [15]): 24.9 days; No. of survivals [16]: 4; No. of survivals (Mus musculus [17]; 160 mg/kg): 4 and 3; MST (Mus musculus [19]): 21.9 days; Ratio [20]: 8.8; MST (Mus musculus [21]): 23.9 days
CN1CCCC1CCNc1nc(Nc2cccc(Br)c2)nc2ccccc12 (configuration not stated) | 6 |  |  |  |  | 11.4 days and 11.7 days |  | 7.8 | 15 |  | 5.2 days and 4.5 days | 1.6 |  | No. of cured (Mus musculus [5]; 640 mg/kg): 3 and 2; MST (Plasmodium berghei [7]; 640 mg/kg): 20.3 days and 21.9 days; Ratio [22]: 12.4
CCNCc1cc(Nc2nc(NC3CCC(N(C)C)CC3)c3ccccc3n2)ccc1OC (configuration not stated) | >69 | 0.5 |  |  |  |  |  | 2.7 |  |  |  | 0.3 |  | MST (Plasmodium berghei [8]): 3.7 days; Ratio [23]: <1.1
CCN(CC)CCNc1nc(Nc2ccc(C(F)(F)F)cc2)nc2ccccc12 | 91 |  |  |  |  |  |  | 7.3 |  | 4 | 1.7 days and 1.1 days | 0.3 | 4 | Ratio [24]: 0.8; No. of survivals (Mus musculus [17]): 1; MST (Plasmodium berghei [8]): 8.9 days
OC1CCCN(CCCNc2nc(Nc3ccc(I)cc3)nc3ccccc23)C1 (configuration not stated) |  | 1.2 |  |  | 20.1 | 8 days and 5.8 days |  | 4 | 13.1 | 2 |  | 1 | 1 | Ratio [26]: 3; MST (Mus musculus [14]): 0.8 days; MST (Plasmodium berghei [27]): 24.1 days; SD90 (Mus musculus [28]): 25 mg/kg/day
OC1CCCN(CCCNc2nc(Nc3ccc(Cl)cc3)nc3ccccc23)C1 (configuration not stated) | 11 |  |  |  |  | 10.4 days and 11.3 days |  | 4.6 | 17.5 | 2 | 2.2 days and 2.5 days | 0.2 | 2 | Ratio [29]: 6.8; MST (Plasmodium berghei [7]; 640 mg/kg): 26.1 days and 23.9 days
CCN(CC)CCCC(C)Nc1nc(Nc2ccc([N+](=O)[O-])cc2)c2ccccc2n1 (configuration not stated) |  |  |  |  | 5 | 2.6 days and 3.2 days |  | 1.4 | 5 |  | 0.8 days and 0.6 days | 0 |  | MST (Plasmodium berghei [27]): 4.3 days; No. of toxic deaths (Mus musculus [30]): 5; No. of toxic deaths (Mus musculus [31]): 2
CCN(CC)C1CCCC(Nc2nc(Nc3ccc(Cl)c(Cl)c3)nc3ccccc23)C1 (configuration not stated) | 17.5 |  | 5 | 5 |  |  |  | 8 |  |  | 5 days and 4.8 days | 1 |  | No. of cured (Mus musculus [32]): 2; MST (Plasmodium berghei [15]): 22.8 days and 23.1 days; Ratio [33]: 4.2
CN(C)C1CCC(Nc2nc(Nc3cc(Cl)cc(Cl)c3)nc3ccccc23)CC1 (stereo in doubt; 25) | 9.3 |  | 5 | 4 |  | 17.5 days and 16.9 days | 5.1 days |  |  |  | 9.7 days and 9.3 days |  |  | Ratio [34]: 8; MST (Plasmodium berghei [10]; 80 mg/kg): 10.9 days; MST (Plasmodium berghei [11]; 320 mg/kg): 24.9 days
